According to patent US20100298141A1, “SUBSTITUTED PYRIDINE N-OXIDE HERBICIDES” (E. I. DU PONT DE NEMOURS AND COMPANY, priority 2007, published 2010):

Tests used:
[1] = system: morningglory; assay: Test C pre-/postemergence test; type: in vivo, Ipomoea coccinea
In short: (§1)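 Compounds in a non-phytotoxic solvent with surfactant applied preemergence to seeded pots and, at the same time, postemergence to plants 2–18 cm tall (1- to 4-leaf stage). Paddy tests: pots flooded to 3 cm, compound applied into the water, depth held throughout.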

[2] = system: wheat; assay: Test C pre-/postemergence test; type: in vivo, Triticum aestivum; settings: for Plant response rating, Wheat: 31 g ai/ha, scale 0 to 100 (0 no effect, 100 complete control)
In short: as §1

[3] = system: blackgrass; assay: Test C pre-/postemergence test; type: in vivo, Alopecurus myosuroides; settings: for Plant response rating, Blackgrass: 31 g ai/ha, scale 0 to 100 (0 no effect, 100 complete control)
In short: as §1

[4] = system: morningglory; assay: Test A pre-/postemergence greenhouse test; type: in vivo, Ipomoea spp.; settings: for Plant response rating, Morningglory: 0 to 100 scale where 0 is no effect and 100 is complete control; for Morningglory plant response rating: 0 to 100 scale
In short: (§2)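 Pre: directed soil spray on seeded loam/sand. Post: foliar spray, plants 2–10 cm, 1–2 leaf stage, applied concurrently. Vehicle: non-phytotoxic solvent + surfactant. Greenhouse ~10 d; visual injury rating vs untreated controls.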

[5] = system: crabgrass; assay: Test C pre-/postemergence test; type: in vivo, Digitaria sanguinalis; settings: for Plant response rating, Crabgrass, Large: 31 g ai/ha, scale 0 to 100 (0 no effect, 100 complete control)
In short: as §1

[6] = system: woolly cupgrass; assay: Test C pre-/postemergence test; type: in vivo, Eriochloa villosa; settings: for Plant response rating, Cupgrass, Woolly: 31 g ai/ha, scale 0 to 100 (0 no effect, 100 complete control)
In short: as §1

[7] = system: umbrella sedge; assay: Test C flooded paddy test; type: in vivo, Cyperus difformis; settings: Flood
In short: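 Test compounds are applied straight into paddy water held 3 cm above the soil surface, with that flood maintained for the whole test. After 13 to 15 days in the greenhouse, each species is scored visually relative to controls.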

[8] = system: soybean; assay: Test C pre-/postemergence test; type: in vivo, Glycine max; settings: for Plant response rating, Soybean: 31 g ai/ha, scale 0 to 100 (0 no effect, 100 complete control)
In short: as §1

[9] = system: pigweed; assay: Test C pre-/postemergence test; type: in vivo, Amaranthus retroflexus; settings: for Plant response rating, Pigweed: 31 g ai/ha, scale 0 to 100 (0 no effect, 100 complete control)
In short: as §1

[10] = system: green foxtail; assay: Test C pre-/postemergence test; type: in vivo, Setaria viridis; settings: for Plant response rating, Foxtail, Green: 31 g ai/ha, scale 0 to 100 (0 no effect, 100 complete control)
In short: as §1

[11] = system: yellow nutsedge; assay: Test C pre-/postemergence test; type: in vivo, Cyperus esculentus; settings: for Plant response rating, Nutsedge, Yellow: 31 g ai/ha, scale 0 to 100 (0 no effect, 100 complete control)
In short: as §1

[12] = system: cocklebur; assay: Test C pre-/postemergence test; type: in vivo, Xanthium strumarium; settings: for Plant response rating, Cocklebur: 31 g ai/ha, scale 0 to 100 (0 no effect, 100 complete control)
In short: as §1

[13] = system: kochia; assay: Test C pre-/postemergence test; type: in vivo, Kochia scoparia
In short: as §1

[14] = system: corn; assay: Test C pre-/postemergence test; type: in vivo, Zea mays; settings: for Plant response rating, Corn: 31 g ai/ha, scale 0 to 100 (0 no effect, 100 complete control)
In short: as §1

[15] = system: common (oilseed) sunflower; assay: Test C pre-/postemergence test; type: in vivo, Helianthus annuus
In short: as §1

[16] = system: Italian ryegrass; assay: Test C pre-/postemergence test; type: in vivo, Lolium multiflorum; settings: for Plant response rating, Ryegrass, Italian: 31 g ai/ha, scale 0 to 100 (0 no effect, 100 complete control)
In short: as §1

[17] = system: barnyardgrass; assay: Test A pre-/postemergence greenhouse test; type: in vivo, Echinochloa crus-galli; settings: for Plant response rating, Barnyardgrass: 0 to 100 scale where 0 is no effect and 100 is complete control; for Barnyardgrass plant response rating: 0 to 100 scale
In short: as §2

[18] = 62 g ai/ha, Preemergence, scale 0 to 100
[19] = 125 g ai/ha, preemergence, scale 0 (no effect) to 100 (complete control)
[20] = Preemergence, 31 g ai/ha, scale 0 to 100 (0 no effect, 100 complete control)
[21] = preemergence, 250 g ai/ha, scale 0 (no effect) to 100 (complete control)
[22] = Postemergence, 500 g ai/ha, 0 is no effect, 100 is complete control
[23] = Preemergence, 125 g ai/ha, 0 no effect, 100 complete control
[24] = Preemergence, 500 g ai/ha, 0 no effect, 100 complete control
[25] = 250 g ai/ha, scale 0 to 100, 0 no effect, 100 complete control, 13 to 15 days
[26] = preemergence, 125 g ai/ha, scale 0 (no effect) to 100 (complete control)
[27] = Postemergence, 125 g ai/ha, 0 is no effect, 100 is complete control

SMILES: CCc1cc[n+]([O-])c(S(=O)(=O)Cc2c(C(F)(F)F)nn(C)c2OC(F)F)c1 [Compound 102]
- Morningglory plant response rating [1, 18]: 85
- Morningglory plant response rating [1, 19]: 100
- Plant response rating, Morningglory [1, 20]: 65
- Morningglory plant response rating [1, 21]: 100
- Wheat plant response rating [2, 18]: 0
- Wheat plant response rating [2, 19]: 40
- Plant response rating, Wheat ([2]; Preemergence): 0
- Wheat plant response rating [2, 21]: 90
- Blackgrass plant response rating [3, 18]: 80
- Blackgrass plant response rating [3, 19]: 80
- Plant response rating, Blackgrass ([3]; Preemergence): 10
- Plant response rating, Morningglory ([4]; Postemergence, 125 g ai/ha): 50
- Morningglory plant response rating [4, 22]: 100
- Morningglory plant response rating [4, 23]: 100
- Morningglory plant response rating [4, 24]: 100
- Crabgrass, Large plant response rating [5, 18]: 95
- Crabgrass, Large plant response rating [5, 19]: 95
- Plant response rating, Crabgrass, Large ([5]; Preemergence): 70
- Crabgrass, Large plant response rating [5, 21]: 100
- Cupgrass, Woolly plant response rating [6, 18]: 85
- Cupgrass, Woolly plant response rating [6, 19]: 85
- Plant response rating, Cupgrass, Woolly ([6]; Preemergence): 50
- Cupgrass, Woolly plant response rating [6, 21]: 95
- Plant response rating, Sedge, Umbrella ([7]; 62 g ai/ha, scale 0 to 100 (0 no effect, 100 complete control)): 0
- Plant response rating, Sedge, Umbrella [7, 25]: 70
- Soybean plant response rating [8, 19]: 65
- Plant response rating, Soybean ([8]; Preemergence): 50
- Soybean plant response rating [8, 21]: 80
- Pigweed plant response rating [9, 18]: 95
- Pigweed plant response rating [9, 19]: 100
- Plant response rating, Pigweed ([9]; Preemergence): 60
- Pigweed plant response rating [9, 21]: 100
- Foxtail, Green plant response rating [10, 18]: 95
- Foxtail, Green plant response rating [10, 19]: 98
- Plant response rating, Foxtail, Green ([10]; Preemergence): 85
- Foxtail, Green plant response rating [10, 21]: 100
- Nutsedge, Yellow plant response rating [11, 18]: 50
- Nutsedge, Yellow plant response rating [11, 19]: 50
- Plant response rating, Nutsedge, Yellow ([11]; Preemergence): 0
- Nutsedge, Yellow plant response rating [11, 21]: 85
- Cocklebur plant response rating [12, 18]: 0
- Cocklebur plant response rating [12, 19]: 0
- Plant response rating, Cocklebur ([12]; Preemergence): 0
- Cocklebur plant response rating [12, 21]: 0
- Kochia plant response rating [13, 18]: 70
- Kochia plant response rating [13, 19]: 100
- Plant response rating, Kochia [13, 20]: 70
- Kochia plant response rating [13, 21]: 100
- Corn plant response rating [14, 18]: 0
- Corn plant response rating [14, 19]: 0
- Plant response rating, Corn ([14]; Preemergence): 0
- Corn plant response rating [14, 21]: 0
- Sunflower plant response rating [15, 18]: 0
- Sunflower plant response rating [15, 19]: 60
- Sunflower plant response rating [15, 21]: 80
- Ryegrass, Italian plant response rating [16, 18]: 0
- Ryegrass, Italian plant response rating [16, 19]: 0
- Plant response rating, Ryegrass, Italian ([16]; Preemergence): 0
- Ryegrass, Italian plant response rating [16, 21]: 20
- Plant response rating, Barnyardgrass ([17]; Postemergence, 125 g ai/ha): 70
- Barnyardgrass plant response rating [17, 22]: 80
- Barnyardgrass plant response rating [17, 23]: 80
- Barnyardgrass plant response rating [17, 24]: 100

SMILES: CC(c1c(C(F)(F)F)nn(C)c1OC(F)F)S(=O)(=O)c1cc(C(C)(C)C)cc[n+]1[O-] (racemic) [Compound 26]
- Morningglory plant response rating [1, 18]: 80
- Wheat plant response rating [2, 18]: 0
- Plant response rating, Wheat ([2]; Preemergence): 0
- Blackgrass plant response rating [3, 18]: 100
- Plant response rating, Blackgrass ([3]; Preemergence): 80
- Plant response rating (0 to 100), Blackgrass ([3]; Preemergence, 250 g ai/ha): 100
- Blackgrass plant response rating [3, 26]: 100
- Morningglory plant response rating [4, 27]: 20
- Morningglory plant response rating [4, 22]: 30
- Morningglory plant response rating [4, 23]: 30
- Plant response rating, Morningglory ([4]; Preemergence, 500 g ai/ha): 100
- Crabgrass, Large plant response rating [5, 18]: 100
- Plant response rating, Crabgrass, Large ([5]; Preemergence): 100
- Plant response rating (0 to 100), Crabgrass, Large ([5]; Preemergence, 250 g ai/ha): 100
- Cupgrass, Woolly plant response rating [6, 18]: 40
- Plant response rating, Cupgrass, Woolly ([6]; Preemergence): 40
- Plant response rating (0 to 100), Cupgrass, Woolly ([6]; Preemergence, 250 g ai/ha): 98
- Plant response rating, Sedge, Umbrella ([7]; 31 g ai/ha, scale 0 to 100 (0 no effect, 100 complete control)): 70
- Plant response rating, Sedge, Umbrella ([7]; 62 g ai/ha, scale 0 to 100, 0 no effect, 100 complete control, 13 to 15 days): 80
- Plant response rating, Sedge, Umbrella ([7]; 125 g ai/ha, scale 0 to 100, 0 no effect, 100 complete control, 13 to 15 days): 95
- Plant response rating, Sedge, Umbrella [7, 25]: 95
- Soybean plant response rating [8, 18]: 0
- Plant response rating, Soybean ([8]; Preemergence): 0
- Pigweed plant response rating [9, 18]: 100
- Plant response rating, Pigweed ([9]; Preemergence): 85
- Foxtail, Green plant response rating [10, 18]: 85
- Plant response rating, Foxtail, Green ([10]; Preemergence): 10
- Plant response rating (0 to 100), Foxtail, Green ([10]; Preemergence, 250 g ai/ha): 100
- Nutsedge, Yellow plant response rating [11, 18]: 50
- Plant response rating, Nutsedge, Yellow ([11]; Preemergence): 0
- Cocklebur plant response rating [12, 18]: 0
- Plant response rating, Cocklebur ([12]; Preemergence): 0
- Plant response rating (0 to 100), Cocklebur ([12]; Preemergence, 250 g ai/ha): 50
- Cocklebur plant response rating [12, 26]: 0
- Kochia plant response rating [13, 18]: 0
- Corn plant response rating [14, 18]: 0
- Plant response rating, Corn ([14]; Preemergence): 0
- Plant response rating (0 to 100), Corn ([14]; Preemergence, 250 g ai/ha): 95
- Corn plant response rating [14, 26]: 70
- Sunflower plant response rating [15, 18]: 0
- Plant response rating, Sunflower [15, 20]: 0
- Ryegrass, Italian plant response rating [16, 18]: 65
- Plant response rating, Ryegrass, Italian ([16]; Preemergence): 0
- Barnyardgrass plant response rating [17, 27]: 0
- Barnyardgrass plant response rating [17, 22]: 0
- Barnyardgrass plant response rating [17, 23]: 60
- Plant response rating, Barnyardgrass ([17]; Preemergence, 500 g ai/ha): 90
